Values quoted from earlier work, collected in patent US8334298B2, “Treatment or prevention of ovarian hyperstimulation syndrome (OHSS) using a dopamine agonist” (Ferring International Center S.A., priority 2005, dated 2012).

Conditions: oncolytic models; cited from earlier work

## Cc1cc(C)c(/C=C2\C(=O)Nc3ccccc32)[nH]1 [SU5416]
  toxic effects: serious toxic effects
